According to patent US20170360671A1, “METHOD FOR PREPARING 3,6-ANHYDRO-L-GALACTOSE, AND USE THEREOF” (Korea University Research and Business Foundation, priority 2012, published 2017):

Test system: mushroom-derived tyrosinase
Assay: In vitro (cell-free) tyrosinase activity assay with L-tyrosine as substrate
Type: biochemical
Settings: 200 μM
Experimental: The in vitro tyrosinase analyses were performed using a slight modification of the reported method (Ishihara Y et al., The journal of antibiotics (Tokyo) 1991; 44:25-32; An S M, Koh J S, Boo Y C, Phytotherapy Research 2010; 24:1175-1180). In brief, 250 μl of a 0.1M potassium phosphate buffer (pH 6.8) was put into a 24-well plate, and 25 μl of a mushroom-derived tyrosinase (2,000 units/mL), 25 μl of a sample, and 225 μl of distilled water were put into each well. The plate was incubated at 25° C. for 10 minutes, and 25 μl of 1 mM L-tyrosine used as a substrate was added to the wells. Then, the plate was incubated at 25° C. for 10 minutes, and the optical density of each well measured at 475 nm using a microplate reader (Sunrise-Basic Tecan, Austria). Each of the measured values was represented by a variation (%) with respect to the control. L-tyrosine was used as the substrate, and arbutin was used as the positive control. The results were represented by the relative tyrosinase activities to the non-treated control. Next, effects of L-AHG on the tyrosinase activities were examined using a cell-free assay system. Many reports disclosed that the mushroom-derived tyrosinase was primarily used as a model since it was able to be used in the form of a tablet. […] The results were represented by the relative tyrosinase activities to the non-treated control. […]

OC[C@H]1O[C@@H](Oc2ccc(O)cc2)[C@H](O)[C@@H](O)[C@@H]1O [arbutin]
tyrosinase activities relative to the non-treated control: 40%
